Values joined by “and” are separate entries in the source; they are usually repeats but may differ in a detail not shown here. Equal entries are not always repeated. Where two headings read alike, the source gives them in different places.
How the values were obtained:
Assay type in all cases: in vivo
[1] = test system: Kochia scoparia (kochia, KCHSC); assay: Greenhouse postemergence trial KCHSC; details: KCHSC, applied alone
[2] = test system: Leptochloa chinensis (Chinese sprangletop, LEFCH); assay: Greenhouse postemergence trial LEFCH; details: Compound A 10 g/ha
Procedure: Seeds of the desired test plant species were planted in a 90:10% v/v (volume/volume) mixture of PRO-MIX® BX (Premier Tech Horticulture, Quakertown, PA, USA) and PROFILE® GREENS GRADE™ (Profile Products LLC, Buffalo Grove, IL, USA) planting mixture, which typically has a pH of 5.2 to 6.2 and an organic matter content of at least 50 percent, in plastic pots with a surface area of 103.2 square centimeters (cm^2). […] The plants were grown for 7-36 days (d) in a greenhouse with an approximate 14-hour (h) photo-period which was maintained at about 23° C. during the day and 22° C. during the night. Nutrients and water were added on a regular basis and supplemental lighting was provided with overhead metal halide 1000-Watt lamps as necessary. The plants were employed for testing when they reached the second or third true leaf stage.
Emulsifiable concentrates of each of each pyridine carboxylate herbicide (Compound A or Compound B) were prepared at 100 grams acid equivalent per liter (g ae/L). The emulsifiable concentrates also included a safener, cloquintocet-mexyl, at 120 grams active ingredient per liter (g ai/L), unless otherwise noted below. An aliquot of each emulsifiable concentrate was placed in a 25 mL glass vial and diluted with an aqueous mixture of 1.25% (v/v) ACTIROB® B esterified rapeseed oil (Bayer Crop Science, Research Triangle Park, NC, USA) or MSO® Concentrate with LECI-TECH® methylated soybean oil (Loveland Products, Loveland, CO, USA) to obtain concentrated stock solutions at the highest application rate for each herbicide, based upon a 12 milliliter (mL) application volume at a rate of 187 liters per hectare (L/ha). The concentrated stock solutions were further diluted with an aqueous mixture of 1.25% v/v ACTIROB® B or MSO® Concentrate with LECI-TECH® to obtain stock solutions at reduced application rates for each herbicide. Spray solutions of the herbicide combinations (Compound A or Compound B plus synthetic auxin herbicide or auxin transport inhibitor) were prepared by adding weighed amounts or aliquots of the synthetic auxin herbicide or auxin transport inhibitor to the stock solutions of Compound A or Compound B to form 12-mL spray solutions in two-way combinations. […]
The treated plants and control plants were placed in a greenhouse as described above and watered by sub-irrigation to prevent wash-off of the test compounds. After 20-22 d, the condition of the test plants as compared with that of the control plants was determined visually and scored on a scale of 0 to 100 percent where 0 corresponds to no injury and 100 corresponds to complete kill.

[3] = test system: Cyanus segetum (cornflower, CENCY); assay: Greenhouse postemergence trial CENCY; details: CENCY; for % visual injury Obs: alone; for % visual injury, Obs: applied alone
[4] = test system: Triticum aestivum (spring wheat, TRZAS)
[5] = test system: Hordeum vulgare (spring barley, HORVS)
[6] = test system: Capsella bursa-pastoris (shepherd's purse, CAPBP); assay: Greenhouse postemergence trial CAPBP; details: CAPBP; for % visual injury, Obs: applied alone
[7] = test system: Ipomoea hederacea (ivyleaf morningglory, IPOHE); assay: Greenhouse postemergence trial IPOHE; details: Compound A 10 g/ha
[8] = Triticum aestivum (spring wheat, TRZAS), in vivo
[9] = c1-2 Compound A 7.5/10, c3 Quinclorac 140, c4-5 A 7.5/10 + Quinclorac 140 g/ha
[10] = c1-3 Compound A 7.5/10/15, c4-5 Fluroxypyr-MHE 100/140, c6-8, c9-11 A 7.5/10/15 + Fluroxypyr-MHE 100, 140 g/ha
[11] = c1-3 Compound A 7.5/10/15, c4 Aminopyralid 5, c5-7 A 7.5/10/15 + Aminopyralid 5 g/ha
[12] = c1-3 Compound A 7.5/10/15, c4 Halauxifen-methyl 6, c5-7 A 7.5/10/15 + Halauxifen-methyl 6 g/ha
[13] = Hordeum vulgare (spring barley, HORVS), in vivo

N#CCOC(=O)c1nc(-c2ccc3cc[nH]c3c2F)c(F)c(N)c1Cl [Compound A, cyanomethyl 4-amino-3-chloro-5-fluoro-6-(7-fluoro-1H-indol-6-yl)pyridine-2-carboxylate]
80%: % visual injury, Obs ([1]; 15 g/ha)
75% and 70%: % visual injury, Obs ([1]; 10 g/ha)
85%: visual injury, Obs ([6]; Compound A 15 g/ha alone) | % visual injury Obs ([6]; alone, 15 g/ha) | % visual injury, Obs ([6]; 15 g/ha) | pest or weed control at 15 g/ha ([6]; Capsella bursa-pastoris, post-emergence, Compound A 15 g/ha, read-out: % visual injury Obs)
0%: LEFCH Obs (% visual injury) ([2]; without safener) | % visual injury, Obs ([2]; LEFCH) | TRZAS Obs (% visual injury) ([4]; Compound A 10 g/ha) | TRZAS % visual injury Obs ([4]; Compound A 10 g/ha (Table 42)) | TRZAS % visual injury Obs ([4]; Compound A 10 g/ha (Table 43)) | TRZAS % visual injury Obs ([4]; Compound A 10 g/ha (Table 44)) | % visual injury Obs ([4]; TRZAS, Compound A 10 g/ha) | % visual injury, Obs ([4]; TRZAS, Compound A 10 g/ha) | visual injury, Obs ([4]; TRZAS, Compound A 10 g/ha alone) | % visual injury Obs ([4]; TRZAS, Compound A 15 g/ha) | visual injury, Obs ([4]; TRZAS, Compound A 15 g/ha alone) | % visual injury (Obs) ([4]; TRZAS, alone 10 g/ha) | % visual injury Obs ([4]; TRZAS, alone 10 g/ha) | % visual injury Obs ([4]; TRZAS, alone, 15 g/ha) | % visual injury, Obs ([4]; TRZAS, applied alone, 10 g/ha) | % visual injury, Obs ([4]; TRZAS, applied alone, 15 g/ha) | % visual injury (crop phytotoxicity) [4, 8] | % visual injury, Obs (crop phytotoxicity) [4, 8] | % visual injury (crop phytotoxicity) [4, 9] | % visual injury (crop phytotoxicity) [4, 10] | % visual injury (crop phytotoxicity) [4, 11] | % visual injury (crop phytotoxicity) [4, 12] | HORVS Obs (% visual injury) ([5]; Compound A 10 g/ha) | HORVS % visual injury Obs ([5]; Compound A 10 g/ha (Table 42)) | HORVS % visual injury Obs ([5]; Compound A 10 g/ha (Table 43)) | HORVS % visual injury Obs ([5]; Compound A 10 g/ha (Table 44)) | % visual injury Obs ([5]; HORVS, Compound A 10 g/ha) | % visual injury, Obs ([5]; HORVS, Compound A 10 g/ha) | visual injury, Obs ([5]; HORVS, Compound A 10 g/ha alone) | % visual injury Obs ([5]; HORVS, Compound A 15 g/ha) | visual injury, Obs ([5]; HORVS, Compound A 15 g/ha alone) | % visual injury (Obs) ([5]; HORVS, alone 10 g/ha) | % visual injury Obs ([5]; HORVS, alone 10 g/ha) | % visual injury Obs ([5]; HORVS, alone, 15 g/ha) | % visual injury, Obs ([5]; HORVS, applied alone, 10 g/ha) | % visual injury, Obs ([5]; HORVS, applied alone, 15 g/ha) | % visual injury (crop phytotoxicity) [5, 13] | % visual injury, Obs (crop phytotoxicity) [5, 13] | % visual injury (crop phytotoxicity) [5, 9] | % visual injury (crop phytotoxicity) [5, 10] | % visual injury (crop phytotoxicity) [5, 11] | % visual injury (crop phytotoxicity) [5, 12]
100%: visual injury, Obs ([3]; Compound A 10 g/ha alone) | visual injury, Obs ([3]; Compound A 15 g/ha alone) | % visual injury Obs ([3]; 10 g/ha) | % visual injury Obs ([3]; 15 g/ha) | % visual injury, Obs ([3]; 10 g/ha) | % visual injury, Obs ([3]; 15 g/ha) | pest or weed control at […] ([3]; Centaurea cyanus, post-emergence, Compound A 7.5 g/ha, read-out: % visual injury Obs) | pest or weed control at 10 g/ha ([3]; Centaurea cyanus, post-emergence, Compound A 10 g/ha, read-out: % visual injury Obs) | pest or weed control at 15 g/ha ([3]; Centaurea cyanus, post-emergence, Compound A 15 g/ha, read-out: % visual injury Obs)
78%: % visual injury (Obs) ([6]; alone 10 g/ha)
50%: visual injury, Obs ([6]; Compound A 10 g/ha alone) | % visual injury Obs ([6]; alone 10 g/ha) | % visual injury, Obs ([6]; 10 g/ha) | pest or weed control at […] ([6]; Capsella bursa-pastoris, post-emergence, Compound A 7.5 g/ha, read-out: % visual injury Obs) | pest or weed control at 10 g/ha ([6]; Capsella bursa-pastoris, post-emergence, Compound A 10 g/ha, read-out: % visual injury Obs)
15%: IPOHE Obs (% visual injury) ([7]; without safener) | % visual injury, Obs ([7]; IPOHE)
